Experiments:
[1] = system: RFP-expressing KRAS cell spheroids; assay: Spheroid spreading assay; format: cell-based, human; conditions: KRAS spheroids within CAF-CDMs produced onto patho stiffness gels; 20 μM U0126 overnight
Protocol: Red fluorescence protein (RFP)-expressing KRAS cells generated in our laboratory were trypsinized and suspended in spheroid formation media (Irvine Scientific, Santa Ana, Calif., Catalog ID: 91130) and allowed to incubate overnight. Thirty μl drops containing 2.5×10^3 cells were carefully placed on a lid of a sterile petri dish. The dish was filled with 5 mL media and the lid with the “hanging drops” was carefully placed, drops face down, and incubated overnight. Spheroids were removed from the lids, one by one, placed onto the diverse substrates or CDMs, and allowed to adhere for 2 hours. Subsequently, the spheroid formation media was diluted with regular pancreatic epithelial growth media (see above). Following a 48-hour incubation, cell spreading was visualized using an inverted fluorescence microscope equipped with epifluorescent image acquisition capabilities. Data were normalized to the initial size of each spheroid at time 0 hour. When indicated, spheroids were treated overnight with 20 μM of the MEK1/2 inhibitor U0126 from Calbiochem or DMSO, while siRNA transfection. The images were processed using MetaMorph 7.8.1.0 software (Molecular Devices, Downingtown, Pa.). A minimum of 5 spheres per condition were analyzed in at least three independent experiments.

[2] = system: pERK1/2; conditions: KRAS cells within CAF-CDMs produced onto patho stiffness gels; 20 μM U0126 overnight; fractionated cell lysates
Protocol: (§1) At the end of the experiments, KRAS cells were lysed with cell lysis buffer from Cell Signaling Technology (Danvers, Mass.) supplemented with Pierce™ Phosphatase and protease Inhibitor Mini Tablets (Cat Nos. 88667 and 88665, respectively) from Thermo Fisher Scientific (Waltham, Mass.). Proteins were SDS-PAGE dissolved and transferred to PVDF membranes. Blots were incubated with the following primary antibodies: Rabbit anti-human Phospho-p44/42 ERK1/2 (Thr^202/Tyr^204)(Cat No. 4370) and rabbit anti-human total-p44/42 ERK1/2 (Cat No. 9102) obtained from Cell Signaling Technology (Danvers, Mass.). Anti-phospho-p90RSK1 (Ser^380) (Cat No. 04-418) and anti-human glyceraldehyde 3-phosphate dehydrogenase (GAPDH) (Cat No. MAB374) obtained from Millipore (Billerica, Mass.). Horseradish peroxidase-conjugated, anti-species matched, secondary antibodies were obtained from Sigma Aldrich (St. Louis, Mo.). Protein bands were visualized using the Protein Simple FluorChemE System, (San Jose, Calif.). Nuclear levels of pERK1/2 were assessed using the Subcellular Protein Fractionation Kit (Thermo Scientific, Waltham, Mass.). Isolation of nuclear versus whole cell fractions was carried out according to the manufacturer's instructions.

[3] = system: phospho-p90RSK; conditions: KRAS cells within CAF-CDMs produced onto patho gels; 20 μM U0126 overnight
Protocol: as §1

- phosphorylation levels of p90 ribosomal S6 kinase (pho-p90RSK) [3]: downregulated
SMILES: N#CC(=C(N)Sc1ccccc1N)C(C#N)=C(N)Sc1ccccc1N [U0126, 1,4-diamino-2,3-dicyano-1,4-bis[2-aminophenylthio] butadiene]
- KRAS spheroid area spread [1]: significant reduction in KRAS spheroid spread
- nuclear levels of pERK1/2 [2]: significant loss of pERK1/2 at nuclear locations

From patent US20190249215A1, “Three-Dimensional Cell-Derived Extracellular Matrix/Gel Systems” (Institute For Cancer Research d/b/a The Research Institute …, priority 2018, published 2019)
